Measured values as given in publication PMC5065787 (Bioorganic & medicinal chemistry, 2016).
Where a chain is given by its changes, count along the chain named.

Key:
h15-LOX-1 L407A = target: T1, h15-LOX-1 L407A (Homo sapiens, UniProt P16050, L407A); test: Steady-state substrate kinetics, L407A; assay type: biochemical; conditions: error in parentheses, no unit in table (sec^−1)
T1 sequence (P16050 1-662 L407A): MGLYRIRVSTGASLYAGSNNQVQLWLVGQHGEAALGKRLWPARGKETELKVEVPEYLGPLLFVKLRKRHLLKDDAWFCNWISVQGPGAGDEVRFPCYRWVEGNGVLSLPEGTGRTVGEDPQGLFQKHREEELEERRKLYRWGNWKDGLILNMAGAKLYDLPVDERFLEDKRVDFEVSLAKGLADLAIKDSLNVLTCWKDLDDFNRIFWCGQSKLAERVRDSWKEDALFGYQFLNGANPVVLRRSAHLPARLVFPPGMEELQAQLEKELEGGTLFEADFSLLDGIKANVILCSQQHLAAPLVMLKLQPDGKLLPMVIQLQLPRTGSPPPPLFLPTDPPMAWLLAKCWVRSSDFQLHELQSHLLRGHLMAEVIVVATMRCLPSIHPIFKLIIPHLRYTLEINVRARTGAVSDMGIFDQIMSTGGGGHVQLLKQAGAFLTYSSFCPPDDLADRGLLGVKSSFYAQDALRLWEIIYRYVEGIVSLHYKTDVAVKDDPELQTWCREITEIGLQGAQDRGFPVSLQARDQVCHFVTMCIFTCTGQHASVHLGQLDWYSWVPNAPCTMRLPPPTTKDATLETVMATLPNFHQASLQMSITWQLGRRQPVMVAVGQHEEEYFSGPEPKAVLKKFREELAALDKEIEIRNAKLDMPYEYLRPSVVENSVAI

h15-LOX-1 F414I = target: T2, h15-LOX-1 F414I (Homo sapiens, UniProt P16050, F414I); test: Steady-state substrate kinetics, F414I; assay type: biochemical; conditions: error in parentheses, no unit in table (sec^−1)
T2 sequence (P16050 1-662 F414I): T1 sequence (P16050 1-662 L407A) with A407L, F414I

For CCCCC/C=C\C/C=C\C/C=C\C/C=C\CCCC(=O)O [AA, arachidonic acid], the kcat (h15-LOX-1 L407A) was 2.5 (0.2) and the kcat (h15-LOX-1 F414I) was 1.8 (0.05).
